The record followed here is ChEMBL document CHEMBL5214937, “Comparative analysis of p-terphenylquinone and seriniquinone derivatives as reactive oxygen species-modulating agents” (Bioorg Med Chem Lett, 2022).

Each structure is given as a SMILES string. Calls of active or inactive are those of the source. No cut-off for these calls is given here.

Test [1] concerns HL-60. Put plainly: Induction of ROS generation in human HL-60 cells assessed as fold increase in intracellular ROS level at 6.25 uM incubated for 3 hrs by NBT reduction assay relative to control. Format: functional.
Test [2] deals with HL-60. Put plainly: Antiproliferative activity against human HL-60 cells assessed as reduction in cell viability at 12.5 uM incubated for 48 hrs by CCK-8 assay relative to control. Format: functional. (In general: Tetrazolium assays rely on reduction of a dye to a coloured formazan, in cell work by metabolically active cells.)
The subject of test [3] is HL-60. The test is described as follows: Antiproliferative activity against human HL-60 cells assessed as inhibition of cell growth incubated for 48 hrs by CCK-8 assay. Format: functional, cell-based. The settings on record: HL-60, 48 h.
For test [4], the system named is HL-60. The test is described as follows: Induction of cell morphological changes in human HL-60 cells assessed as chromatin condensation at 3 uM incubated for 48 hrs by Hoechst 33342 staining based microscopic analysis. Format: functional.
Test [5] relates to HL-60. Put plainly: Induction of cell morphological changes in human HL-60 cells assessed as appearance of apoptotic bodies at 3 uM incubated for 48 hrs by Hoechst 33342 staining based microscopic analysis. Format: functional.
For the next test, the system named is B16. The test is described as follows: Antiproliferative activity against mouse B16 cells assessed as inhibition of cell growth incubated for 48 hrs by CCK-8 assay. Format: functional, cell-based. The conditions noted are these: B16, 48 h.
The test system of test [6] is HL-60. Put plainly: Induction of ROS generation in human HL-60 cells assessed as increase in extracellular ROS level at 6.25 uM incubated for 3 hrs by NBT reduction assay. Format: functional, cell-based.

What is called IC50 is the point on the concentration scale where inhibition reaches its midpoint.

Regarding `O=c1c2ccccc2c(=O)c2c1sc1c(=O)c3ccccc3c(=O)c12`, the “fold change (FC)” value with HL-60 [1] was >4. Also, the Activity with HL-60 [2] is <10%. For the same compound, the figures for the IC50 in the test with HL-60 [3] and in the test with B16 were 1730 nM and 2380 nM, respectively. Moreover, the outcome in the test with HL-60 [4] and in the test with HL-60 [5] was Active.

For the compound `COc1ccc2c(=O)c3sc4c(=O)c5ccc(OC)cc5c(=O)c4c3c(=O)c2c1`, the Activity in the test with HL-60 [2] came out at 31.8%.

As for `COC1=C(c2ccc(O)cc2)C(=O)C(OC)=C(c2ccc(O)cc2)C1=O`, in the test with HL-60 [3], the IC50 is > 25000 nM.

On to `O=C1C(O)=C(c2ccc(O)cc2)C(=O)C(O)=C1c1ccc(O)cc1`, for which the IC50 in the test on HL-60 [3] came out at 5710 nM.

On to `COc1ccc(C2=C(O)C(=O)C(c3ccc(OC)cc3)=C(O)C2=O)cc1`, for which the IC50 in the test with HL-60 [3] is > 25000 nM.

As to `O=c1c2ccccc2c(=O)c2c1oc1c(=O)c3ccccc3c(=O)c12`, the “fold change (FC)” value in the test on HL-60 [1] was >4. The Activity in the test with HL-60 [2] is listed as <10%. Moreover, the figures for the IC50 with HL-60 [3] and in the test on B16 were 70 nM and 180 nM, respectively. The result in the test with HL-60 [4] and in the test on HL-60 [5] was Active.

Turning to `COC1=C(c2ccc(OC)cc2)C(=O)C(OC)=C(c2ccc(OC)cc2)C1=O`, in the test with HL-60 [3], the IC50 was > 25000 nM.

Turning to `COc1ccc2c(=O)c3c(oc4c5ccc(OC)cc5c(=O)c(=O)c43)c(=O)c2c1`, the Activity in the test on HL-60 [2] stood at 74%.

Consider `O=C1C(OC(=O)c2ccccc2)=C(c2ccc(O)cc2)C(=O)C(OC(=O)c2ccccc2)=C1c1ccc(O)cc1`, for which the half-maximal inhibitory concentration (IC50) in the test on HL-60 [3] is > 25000 nM.

Regarding `O=C1C(O)=C(c2ccccc2)C(=O)C(O)=C1c1ccccc1`, the IC50 in the test with HL-60 [3] was > 25000 nM.

As for `O=c1c2ccccc2c(=O)c2c1[se]c1c(=O)c3ccccc3c(=O)c12`, the “fold change (FC)” value in the test on HL-60 [1] is >4. Further, the Activity in the test with HL-60 [2] is <10%. Moreover, the IC50 with HL-60 [3] stood at 2910 nM; in the test on B16 it was 2830 nM. Moreover, the outcome with HL-60 [4] and in the test on HL-60 [5] was Active.

Consider `COC1=C(c2ccccc2)C(=O)C(OC)=C(c2ccccc2)C1=O` [BETULINAN A], for which the IC50 with HL-60 [3] turned out to be 5910 nM.

On to `COc1ccc2c(=O)c3oc4c5cc(OC)ccc5c(=O)c(=O)c4c3c(=O)c2c1`, for which, in the test on HL-60 [2], the Activity came out at 11%.

With `O=c1c(=O)c2c(oc3c(=O)c4ccccc4c(=O)c32)c2ccccc12`, the “fold change (FC)” value in the test on HL-60 [1] was >4. Also, the outcome in the test with HL-60 [6], in the test on HL-60 [4] and in the test on HL-60 [5] was Active. The Activity with HL-60 [2] is <10%. In addition, the concentration for half-maximal inhibition (IC50) in the test with HL-60 [3] is 1570 nM; with B16, 2950 nM.
